Test results taken from US20210283211A1, “COMPOSITIONS AND METHODS OF ALLEVIATING RESISTANCE TO CHEMOTHERAPY” (CITY OF HOPE, priority 2019, published 2021).
“Also recorded” adds a separate entry of the source. One block for each molecule: values may come before it.

Columns and labels:
H358 cells = assay: Cell-based rescreen of top virtual-screen hits, IC50 determination; conditions: Homo sapiens, NCI-H358, 0.1 μM to 10 μM, 72 hours
Protocol: Cell viability assay: Cell Counting Kit-8 (CCK-8) was purchased from Dojindo Molecular Technologies (Rockville, Md., USA). Cells were seeded on a 96-well plate and allowed to adhere in complete medium for 24 hours. Test compounds were added to 100 μl of medium at the indicated concentrations for 72 hours. Ten μl of the CCK-8 reagent were added to each well and absorbance at 450 nm was measured using a Tecan Spark 10M multimode microplate reader.
A virtual screen of a library of 1440 FDA-approved drugs using binding pockets in the N-terminal domain of PXN (FIG. 9H) identified several putative hits. The top 40 hits were then rescreened employing a cell-based assay to determine their efficacy using H358 cells.

H2009 cells [1] = assay: Scratch wound healing assay; assay type: cell-based, human; conditions: for cell migration / wound healing: sublethal dose (carfilzomib 50-200 nM)
Protocol: (§1) Scratch wound healing assay. Cells were seeded on a 96-well Image Lock (Essen BioScience, Ann Arbor, Mich., USA) plate to reach 90% confluence by the next day. After cell adherence, 96 uniform wounds were created simultaneously using the WoundMaker (Essen BioScience) tool. Cells were washed once with serum-free medium and replenished with complete medium. To monitor wound healing, the plate was placed in the IncuCyte S3 Live-Cell Analysis System (Essen BioScience) and images were acquired every hour. Data analysis was generated by the IncuCyte software using a set confluence mask to measure relative wound density over time.
(§2) To discern the effect of knocking down ITGB4 on cell migration, H1993 and H2009 cells were transfected with the control or ITGB4-specific siRNA in 6-well plates and 12 hours post transfection, the cells were trypsinized and reseeded at high density in a 96-well plate. […] While both cell lines transfected with the control siRNA achieved 100% confluency of the wound within 48 hours, H1993 and 2009 cells in which ITGB4 was knocked down reached ˜60% and ˜80% confluency, respectively; neither cell line reached 100% confluency even after 96 h (FIG. 3F). Next the rate of wound closure was estimated. The rate was determined by dividing initial wound width by the time taken to close the wound. […] Similarly, in the case of the H2009 cells, the wound width closure rate dropped from 22 μm/h to about 18 μm/h (FIG. 3G). […] Additionally, up regulation of expression of other integrin β forms in response to ITGB4 knockdown was checked and an increase in the expression of ITGB1, ITGB2, and ITGB3 at mRNA level was found (FIG. 3I). The effect of ITGB3 silencing in the ITGB4 knocked down cells was further tested but no significant difference in their proliferation was found (FIG. 3J).

[2] = test system: ITGB4 and PXN expression, γH2AX in H358 cells; assay: Immunoblot after sublethal dose; assay type: cell-based, human; conditions: 72 hours
Protocol: West blotting: Cell lysates were prepared with 1×RIPA buffer (MilliporeSigma) and denatured in 1× reducing sample buffer at 95° C. for 5 minutes. Protein samples (15 μg) were run on 4-15% TGX gels (Bio-Rad, Hercules, Calif., USA) and transferred onto nitrocellulose membranes (Bio-Rad). Blots were blocked with 5% non-fat milk in TBS-T for 1 hour at room temperature and probed with primary antibody diluted in 2.5% BSA in TBS-T overnight at 4° C. After three washes with TBS-T, blots were incubated with HRP-conjugated secondary antibodies for 2 hours at room temperature. After three more washes, bands of interest were visualized via chemiluminescence using Western Bright ECL HRP substrate (Advansta, Menlo Park, Calif., USA) and imaged with the ChemiDoc MP imager (Bio-Rad).
Then a sublethal dose was used to determine the effect of these compounds on ITGB4 and PXN expression and caspase activity (FIG. 9I). […] These eleven compounds were further screened in the cisplatin-resistant cell line H2009. […] Further, carfilzomib was tested in another cisplatin-resistant cell line H1993.

H2009 cells [3] = assay: IncuCyte cell proliferation and caspase-3/7 apoptosis assay; assay type: cell-based, human
Protocol: (§3) Cell proliferation and apoptosis assay. Cell proliferation assays were performed using cell lines stably transfected with NucLight Red Lentivirus (Essen Bioscience) to accurately visualize and count the nucleus of a single cell. Cells were seeded on a 96-well plate and allowed to adhere for 24 hours. Test compounds were added at indicated concentrations. Caspase-3/7 Green Apoptosis Reagent (Essen Bioscience) was also added as a green fluorescent indicator of caspase-3/7-mediated apoptotic activity. To monitor cell proliferation and apoptosis over time, the plate was placed in the IncuCyte S3 Live-Cell Analysis System (Essen BioScience) and images were acquired every 2 hours. Data analysis was generated by the IncuCyte software using a red fluorescence mask to accurately count each cell nucleus and a green fluorescence mask to measure apoptosis over time.
(§4) To determine whether the inhibition in cell proliferation associated with ITGB4 knockdown was due to enhanced apoptosis or reduced cell division (cytostatic), the Essen Bioscience Caspase-3/7 Green apoptosis assay in live cells was conducted. The NucView™[…], a DNA intercalating dye was used to enable quantification of apoptosis over time. The dye is impermeable and non-toxic to cells but once the cell membrane is permeabilized by caspase-3/7, the dye enters the cell and gets activated due to change in pH leading to the generation of green fluorescence that is then detected in real time and quantified using the IncuCyte System (FIG. 4B).
(§5) To address this, H1993 and H2009 cells were treated with cisplatin for 3 days and the changes were analyzed by immunoblotting. […] Next, H1993 and H2009 cells were transiently transfected with ITGB4 siRNA and 24 hours post-transfection they were treated with 10 μM cisplatin and cell proliferation and caspase activity were determined. […] However, in response to cisplatin in ITGB4 knockdown cells, the fold change dipped to <1, alluding to a cytotoxic effect (FIG. 4C). […] However, cell death was not due to caspase activation but appeared to be due to cell bursting which is seen in anoikis (FIGS. 3K and 3L).

H1993 cells [4] = assay: as above; assay type: cell-based, human; conditions: for inhibition of cell proliferation: siRNA knockdown
Protocol: as §3, §4
as §5, with “3L). […]” for “3L).”

H1993 cells [5] = assay: Scratch wound healing assay; assay type: cell-based, human; conditions: ITGB4 knockdown
Protocol: as §1, §2

- IC50 (H358 cells): 171 nM
Molecule: C1=C/COCc2cc(ccc2OCCN2CCCC2)Nc2nccc(n2)-c2cccc(c2)COC/1 [Pacritinib]

Molecule: C#Cc1cccc(Nc2ncnc3cc(OC)c(OCCCCCCC(=O)NO)cc23)c1 [CUDC-101]
- cell migration / wound healing (H2009 cells [1]): less effective than carfilzomib in inhibiting wound healing; also recorded: did not
- IC50 (H358 cells): 501 nM
- apoptosis, DNA damage (γH2AX) and ITGB4 expression [2]: induced apoptosis and caused DNA damage

Molecule: Cc1cnc(-c2ccccc2C(C)C)nc1NCc1ccc(-n2ccnn2)cc1 [ML323]
- cell proliferation rates (H2009 cells [3]; 5 μM and 10 μM, 3 days): no significant change
- cell proliferation rates (H1993 cells [4]; 5 μM and 10 μM, 3 days): no significant change

- IC50 (H358 cells): 1 nM
Molecule: Cc1nc(Nc2ncc(C(=O)Nc3c(C)cccc3Cl)s2)cc(N2CCN(CCO)CC2)n1 [Dasatinib]

Molecule: ACAACACUCAGAAUCUAAAUUGGAC (SEQ ID NO: 13) (listed as RNA, chemistry not given here) [VDAC1 siRNA, siRNA against VDAC1]
- increase in apoptosis (H2009 cells [3]; VDAC1 knockdown, 120 hours): 2 fold
- decrease in cell proliferation (H2009 cells [3]; VDAC1 knockdown, by 72 hours): 50%

- IC50 (H358 cells): 9 nM
Molecule: CN(C)C/C=C/C(=O)Nc1cc2c(Nc3ccc(F)c(Cl)c3)ncnc2cc1O[C@H]1CCOC1 [Afatinib]

Molecule: GUCAGUUCUGCGAGUAUGACAACTT (SEQ ID NO: 9) (chemistry not given here) [ITGB4 siRNA, siRNA against ITGB4, construct C, OriGene SR302473C]
- doubling time (H2009 cells [3]; ITGB4 knockdown, control approximately 25 hours): 40 h
- wound width closure rate (H2009 cells [1]; ITGB4 knockdown, control 22 μm/h): about 18 μm/h
- wound confluency (H2009 cells [1]; ITGB4 knockdown, control siRNA 100% within 48 hours): ~80%
- wound confluency (H1993 cells [5]; control siRNA 100% within 48 hours): ~60%
- wound closure rate (H1993 cells [5]; control ~25 μm/h): < 10 μm/h
- fold change in cell count (H1993 cells [4]; ITGB4 knockdown or 10 μM cisplatin alone, cytostatic): ~1 fold
- fold change in cell count (H1993 cells [4]; ITGB4 knockdown plus 10 μM cisplatin, cytotoxic): < 1 fold
- increase in caspase activity compared to control (H1993 cells [4]; ITGB4 knockdown, by 24 hours): 5- to 6 fold
- increase in caspase activity compared to control (H1993 cells [4]; ITGB4 knockdown, by 72 hours): 20 fold
- increase in cell count (H1993 cells [4]; ITGB4 knockdown, by 72 hours): 0.2 fold
- estimated doubling time (H1993 cells [4]; ITGB4 knockdown, control 72 hours): approximately 120 hours
- drop in the fold change of cell count (H1993 cells [4]; knockdown plus cisplatin, compared to scramble siRNA cells treated with cisplatin): 40%
- inhibition of cell proliferation (H1993 cells [4]): 50%

- IC50 (H358 cells): 358 nM
Molecule: C=CC(=O)Nc1cc(Nc2nccc(-c3cn(C)c4ccccc34)n2)c(OC)cc1N(C)CCN(C)C [Osimertinib]

- IC50 (H358 cells): 60 nM
Molecule: COc1cc2ncnc(Nc3ccc(F)c(Cl)c3)c2cc1NC(=O)/C=C/CN1CCCCC1 [Dacomitinib]

Molecule: GGAGCACAAAGCCAACUAACGARCA (SEQ ID NO: 11) (listed as RNA, chemistry not given here) [USP1 siRNA, siRNA against USP1, construct B, OriGene SR305052B]
- inhibition of cell proliferation (H2009 cells [3]; USP1 knockdown, by 72 hours of seeding): > 2 fold

- IC50 (H358 cells): 0.9 nM
Molecule: Cc1cc(Nc2cc(N3CCN(C)CC3)nc(Sc3ccc(NC(=O)C4CC4)cc3)n2)[nH]n1 [Tozasertib]

- IC50 (H358 cells): 60 nM
Molecule: C=CC(=O)N1CCC(Oc2cc3c(Nc4ccc(Cl)c(Cl)c4F)ncnc3cc2OC)CC1 [Poziotinib]

- IC50 (H358 cells): 1540 nM
Molecule: CCS(=O)(=O)N1CCN(c2ccc(Nc3ncc(C(N)=O)c(NC4CC4)n3)cc2)CC1 [Cerdulatinib]

Molecule: CC(C)C[C@H](NC(=O)CNC(=O)c1cc(Cl)ccc1Cl)B(O)O [Ixazomib]
- cell migration / wound healing (H2009 cells [1]): less effective than carfilzomib in inhibiting wound healing; also recorded: impeded cell migration
- IC50 (H358 cells): 303 nM
- apoptosis, DNA damage (γH2AX) and ITGB4 expression [2]: induced apoptosis and caused DNA damage

Molecule: GCUUCGCUGUCGGAUUUCATT (SEQ ID NO: 6) (chemistry not given here) [PXN siRNA, siRNA against PXN, Life Technologies Cat 4392421]
- inhibition of cell proliferation (H1993 cells [4]): 15%
